Assay results published in patent US6734203B2, “Fused imidazolium derivatives” (priority 2000, dated 2004).

Assay: Mouse single administration toxicity test
Type: in vivo, Balb/C mice
Settings: 3 mg/kg single intravenous administration, observation period of 2 weeks
Procedure: (Test methods) The compounds of the invention were administered by single intravenous administration to Balb/C mice, and the presence of mortal case during the observation period of 2 weeks was evaluated.

Row | SMILES | presence of mortal case
1 | Cn1c2c([n+](C)c1CCl)C(=O)c1ccccc1C2=O [KP-1, reference compound] | all of respective 2 cases died
2 | COCC[n+]1c2c(n(Cc3ccnc(Cl)c3)c1C)C(=O)c1ccccc1C2=O [Example 192, 1-[(2-chloro-4-pyridyl)methyl]-3-(2-methoxyethyl)-2-methyl-4,9-dioxo-4,9-dihydro-1H-naphtho[2,3-d]imidazol-3-ium] | Mortal case was not found
3 | COCC[n+]1c2c(n(Cc3cccnc3Cl)c1C)C(=O)c1ccccc1C2=O [Example 184, 1-[(2-chloro-3-pyridyl)methyl]-3-(2-methoxyethyl)-2-methyl-4,9-dioxo-4,9-dihydro-1H-naphtho[2,3-d]imidazol-3-ium] | Mortal case was not found
4 | COCCN(C(C)=O)C1=C(NCc2cccnc2)C(=O)c2ccccc2C1=O [Example 35, N-(2-methoxyethyl)-N-[3-(3-pyridylmethyl)amino-1,4-dihydro-1,4-dioxo-2-naphthalenyl]acetamide] | Mortal case was not found
5 | COCCn1c2c([n+](Cc3ccncc3)c1C)C(=O)c1ccccc1C2=O.Cl.[Cl-] [Example 182, 1-(2-methoxyethyl)-2-methyl-3-(4-pyridylmethyl)-4,9-dihydro-4,9-dioxo-1H-naphtho[2,3-d]imidazol-3-ium chloride monohydrochloride] | Mortal case was not found
6 | COCC[n+]1c2c(n(Cc3ccc(Cl)nc3)c1C)C(=O)c1ccccc1C2=O.[Cl-] [Example 9, 1-[(6-chloro-3-pyridyl)methyl]-3-(2-methoxyethyl)-2-methyl-4,9-dioxo-4,9-dihydro-1H-naphtho[2,3-d]imidazol-3-ium chloride] | Mortal case was not found
7 | COCCNC1=C(N(Cc2ccncc2)C(C)=O)C(=O)c2ccccc2C1=O [Example 4, N-[3-(2-methoxyethyl)amino-1,4-dihydro-1,4-dioxo-2-naphthalenyl]-N-(4-pyridylmethyl)acetamide] | Mortal case was not found
8 | COCCn1c2c([n+](CCOC)c1C)C(=O)c1ccccc1C2=O [Example 148, 1,3-bis(2-methoxyethyl)-2-methyl-4,9-dioxo-4,9-dihydro-1H-naphtho[2,3-d]imidazol-3-ium] | Mortal case was not found
9 | COCCN(C(C)=O)C1=C(NCc2ccncc2)C(=O)c2ccccc2C1=O [Example 37, N-(2-methoxyethyl)-N-[3-(4-pyridylmethyl)amino-1,4-dihydro-1,4-dioxo-2-naphthalenyl]acetamide] | Mortal case was not found
10 | COCCn1c2c([n+](Cc3cccnc3)c1C)C(=O)c1ccccc1C2=O [Example 180, 1-(2-methoxyethyl)-2-methyl-4,9-dioxo-3-(3-pyridylmethyl)-4,9-dihydro-1H-naphtho[2,3-d]imidazol-3-ium] | Mortal case was not found
11 | COCC[n+]1c2c(n(Cc3ccc(Cl)cc3)c1C)C(=O)c1ccccc1C2=O [Example 197, 1-(4-chlorobenzyl)-3-(2-methoxyethyl)-2-methyl-4,9-dioxo-4,9-dihydro-1H-naphtho[2,3-d]imidazol-3-ium] | Mortal case was not found
12 | CCn1c2c([n+](CC)c1C)C(=O)c1ccccc1C2=O [KP-3, reference compound] | all of respective 2 cases died
13 | COCC[n+]1c2c(n(Cc3cnccn3)c1C)C(=O)c1ccccc1C2=O [Example 154, 3-(2-methoxyethyl)-2-methyl-4,9-dioxo-1-(2-pyrazinylmethyl)-4,9-dihydro-1H-naphtho[2,3-d]imidazol-3-ium] | Mortal case was not found
14 | COCC[n+]1c2c(n(Cc3ccnc(O)c3)c1C)C(=O)c1ccccc1C2=O [Example 185, 1-[(2-hydroxy-4-pyridyl)methyl]-3-(2-methoxyethyl)-2-methyl-4,9-dioxo-4,9-dihydro-1H-naphtho[2,3-d]imidazol-3-ium] | Mortal case was not found
15 | COCC[n+]1c2c(n(Cc3ccc(OC)nc3)c1C)C(=O)c1ccccc1C2=O [Example 186, 3-(2-methoxyethyl)-1-[(6-methoxy-3-pyridyl)methyl]-2-methyl-4,9-dioxo-4,9-dihydro-1H-naphtho[2,3-d]imidazol-3-ium] | Mortal case was not found
